# Test results as given in ChEMBL document CHEMBL2417421, “Biotransformation of ent-pimaradienoic acid by cell cultures of Aspergillus niger” (2013).
# Test system: Aorta
# Assay: Antispasmodic activity in rat aorta assessed as inhibition of phenylephrine-induced aorta contraction at 100 uM after 60 mins relative to control
# Type: functional
# Details: 1 h
row,Structure (SMILES),inhibition at 100 µM [%]
1,C=C[C@]1(C)C=C2CC[C@H]3[C@@](C)(CCC[C@@]3(C)C(=O)O)[C@@H]2CC1,73.2
2,C=C[C@]1(C)C=C2[C@H](O)C[C@H]3[C@@](C)(CCC[C@@]3(C)C(=O)O)[C@@H]2CC1,16.8
3,C=C[C@]1(C)C=C2C=C[C@H]3[C@](C)([C@@H]2CC1)[C@@H](O)CC[C@@]3(C)C(=O)O,12.5
4,C=C[C@@]1(C)CC[C@@H]2C(=C[C@H](O)[C@H]3[C@@]2(C)[C@H](O)CC[C@@]3(C)C(=O)O)[C@H]1O,0
5,C=C[C@]1(C)C=C2[C@@H](O)[C@H](O)[C@H]3[C@@](C)([C@H](O)CC[C@@]3(C)C(=O)O)[C@@H]2[C@@H](O)C1,0
6,C=C[C@@]1(C)CC[C@@H]2C(=CC[C@H]3[C@@]2(C)CCC[C@@]3(C)C(=O)O)C1,50.8
7,C=C[C@]1(C)C=C2C(=O)C[C@H]3[C@@](C)(CCC[C@@]3(C)C(=O)O)[C@@H]2CC1,61.5
8,C=C[C@]1(C)C=C2[C@@H](CC1)[C@]1(C)CCC[C@@](C)(C(=O)OC)[C@H]1C[C@@H]2O,82.5
9,C=C[C@]1(C)C=C2CC[C@@H]3[C@](C)(CO)CCC[C@@]3(C)[C@@H]2CC1,58.8
10,C=C[C@]1(C)C=C2CC[C@H]3[C@@](C)(CCC[C@@]3(C)C(=O)OC)[C@@H]2CC1,10.5
